One compound from patent publication US20090318402A1, “RUTHENIUM (II) COMPOUNDS” (The University Court of the University of Edinburg, priority 2006, published 2009) can be followed below.

By IC50 is commonly meant the concentration that gives 50% inhibition. Lower therefore signals greater potency in that assay.

For one data set, the system named is A2780 cancer cell line. Kind of data set: Cytotoxicity: inhibitory growth activity, sulforhodamine B assay. It is filed as cell-based. The note with it: 24 hours drug exposure, 96 hours recovery, SRB. The protocol: (§1) Compounds were tested for inhibitory growth activity against the A2780 and A549 cancer cell lines. Each drug was tested for activity at six different concentrations (100 μM, 50 μM, 10 μM, 5 μM, 1 μM and 0.1 μM) and each concentration was tested in triplicate, relative to a cisplatin control.
The A2780 cancer cell line was maintained by growing the cells in RPMI media supplemented with 5% fetal bovine serum, 1% penicillin/streptomycin and 2 mM L-glutamine. The cells were split when approximately 70-80% confluence were reached using 0.25% trypsin/EDTA. The cells were kept incubated at 37° C., 5% CO2, high humidity. The A549 cancer cell line was maintained by growing the cells in DMEM media supplemented with 10% fetal bovine serum, 1% penicillin/streptomycin and 2 mM L-glutamine. The cells were split when approximately 70-80% confluence were reached using 0.25% trypsin/EDTA. The cells were kept incubated at 37° C., 5% CO2, high humidity.
A2780 cancer cells were plated out at 50000 cells/well (±10%) on day one. A549 cancer cells were plated out at 20000 cells/well (±10%) on day two. On day three the test compound was dissolved in DMSO to give a stock solution of 20 mM and serial dilutions were carried out in DMSO to give concentrations of drug in DMSO of 10 mM, 2 mM, 1 mM, 0.2 mM and 0.02 mM. These were added to the wells to give the six testing concentrations and a final concentration of DMSO as 0.5% (v/v) with a total volume of drugs and media to be 200 μl. The cells were exposed to the drug for 24 hours then, after drug removal, fresh media was given and the cells were incubated for 96 hours recovery time. The remaining biomass was estimated by the sulforhodamine B assay. The cells were then fixed using 50 μl 50% (w/v) TCA and incubated at 4° C. for one hour. The biomass was stained with 100 μl 0.4% (w/v) sulforhodamine B in 1% acetic acid. The dye was solubilised with Tris Buffer and the absorbance was read using a BMG Fluostar microplate reader at 595 nm. A baseline correction at 690 nm was subtracted from the values. The absorbance for 100% cell survival was based on the average absorbance for the 0.1 μM dosed triplicate for that drug. IC50 values were calculated using XL-Fit version 4.0.

Data set [1] relates to A549 cancer cell line. The data set is described as above. The data set is classed as cell-based. The settings on record: 24 hours drug exposure, 96 hours recovery, SRB. The protocol:
as §1
The A2780 cancer cell line was maintained by growing the cells in RPMI media supplemented with 5% fetal bovine serum, 1% penicillin/streptomycin and 2 mM L-glutamine. […] The cells were kept incubated at 37° C., 5% CO2, high humidity. The A549 cancer cell line was maintained by growing the cells in DMEM media supplemented with 10% fetal bovine serum, 1% penicillin/streptomycin and 2 mM L-glutamine. […] The cells were kept incubated at 37° C., 5% CO2, high humidity.
A2780 cancer cells were plated out at 50000 cells/well (±10%) on day one. A549 cancer cells were plated out at 20000 cells/well (±10%) on day two. […] The remaining biomass was estimated by the sulforhodamine B assay. The cells were then fixed using 50 μl 50% (w/v) TCA and incubated at 4° C. for one hour. The biomass was stained with 100 μl 0.4% (w/v) sulforhodamine B in 1% acetic acid. The dye was solubilised with Tris Buffer and the absorbance was read using a BMG Fluostar microplate reader at 595 nm. A baseline correction at 690 nm was subtracted from the values. The absorbance for 100% cell survival was based on the average absorbance for the 0.1 μM dosed triplicate for that drug. IC50 values were calculated using XL-Fit version 4.0.

Data set [2] can be described thus: Aqueous solution chemistry followed by 1H NMR (hydrolysis, arene loss). It is filed as physicochemical. The procedure:
NMR-Spectroscopy: All ^1H NMR experiments for characterization of synthesized compounds were recorded on either a Bruker DMX 500 MHz spectrometer equipped with TBI [^1H, ^13C, ^15N] probe-head, equipped with z-field gradients or a Bruker DPX 360 MHz spectrometer. The proton signals were calibrated against the residual solvent peak, δ 7.27 (chloroform), 2.07 (acetone) and 2.52 (DMSO). The 2D ^1H-TOCSY and 2D ^1H COSY experiments for characterization were run on a Bruker DMX 500 MHz spectrometer. 2D-^1H ROESY experiment for characterization was recorded on a Bruker AVA […] spectrometer equipped with a with a TXI [^1H, ^13C, ^15N] probe-head, equipped with z-field gradients. All pH titration experiments were recorded on a Bruker AVA 600 MHz spectrometer where dioxan was added as an internal reference (δ 3.75, in 100% D2O). The water was suppressed using a 1D Double Pulse Field Gradient Spin Echo (DPFGSE) experiment. The aqueous solution behaviour was recorded on a Bruker bio 600 MHz spectrometer equipped with a cryoprobe and the water was suppressed using a 1D Double Pulse Field Gradient Spin Echo (DPFGSE) experiment. The chemical shifts were measured relative to dioxin (internal reference δ 3.75, in 90% H2O/10% D2O). All spectra were recorded using 5 mm quartz tubes at 298 K unless stated otherwise. All NMR data were processed using Xwin-NMR (Version 2.0 Bruker UK Ltd).
The complex was dissolved in H2O/D2O, the pH was taken, and NMR spectra were recorded at uniform time intervals at a fixed temperature using a multi-zg kinetic experiment program. After acquisition, Electrospray Mass Spectrometry was performed on a portion of the NMR solution.
The solution chemistry was followed by ^1H NMR unless stated otherwise.

Data set [3] in a line: Solution chemistry in phosphate buffer mimicking cell test conditions (NMR, ESI-MS). It is filed as physicochemical. The note with it: 100 μM, 10 mM phosphate buffer, 95% D2O, 5% MeOD, 310 K, 24 h; pH* 7.35 (8), 7.40 (10), 7.31 (13), 7.38 (21). The protocol: Solutions of four ruthenium complexes (8, 10, 13 and 21) in MeOD were diluted down in 10 mM phosphate buffer/D2O to give a final concentration of 100 μM ruthenium (95% D2O, 5% MeOD) and NMR spectra were recorded at 310 K initially (time ca. 15 minutes) and after 24 h. The pH* of the samples was 7.35 (8), 7.40 (10), 7.31 (13) and 7.38 (21), The samples were kept in the water bath at 310 K between acquisitions. After 24 hour, ESI-MS was performed on the samples. These conditions were chosen to mimic pH, concentration, exposure time and temperature for the biological cell tests.

Data set [4] in a line: Reactions with ascorbate (UV-Vis, 1H NMR). The data set is classed as physicochemical. The note with it: 5 equivalents ascorbate, 10 mM phosphate buffer, pH 7.35 (UV-Vis) / 7.30 (NMR), 310K.
Another data set has as its system A549 cancer cells. Kind of data set: Detection of reactive oxygen species (ROS) with DCFH-DA probe. The data set is classed as cell-based. The settings on record: 25 μM, 0.5% DMSO, 6.5 hours, 310 K, cells pre-loaded with DCFH-DA; FIG. 4. The procedure:
The generation of ROS can be detected inside living cells using the molecular probe DCFH-DA. This probe crosses the membrane into cells where it is hydrolyzed to DCFH. In the presence of ROS it is oxidized to highly fluorescent DCF. […] Cells were loaded with DCFH-DA (10 μM, 0.5% DMSO (v/v)) and were incubated at 310 K, 5% CO2, high humidity for 30 minutes. The probe was removed and the cells were washed twice with PBS (200 μL). The cells were then kept in Hanks Balanced Salt Solution (HBSS) and the ruthenium compounds were diluted with HBSS and added to the wells (25 μM, 0.5% DMSO (v/v)). Hydrogen peroxide (25 μM) was added as a positive control and the fluorescence was read every 200 seconds over a period of 6.5 hours at 310 K by excitation at 480±10 nm and emission at 538±15 nm on a BMG fluostar plate reader. A time course experiment was performed to follow any increase in fluorescence over 6.5 hours after addition of ruthenium compounds to cells pre-loaded with DFCH-DA.

The test system of data set [5] is A549 cancer cell line. As to the kind of experiment: Cell viability after increasing thiol levels (NAC pre-incubation). It is filed as cell-based. The note with it: 5 μM drug, 24 hours incubation, 96 hour recovery, 5 mM NAC for two hours; FIG. 5. The procedure:
Cell viability was determined in the A549 cancer cell line after cells were pre-incubated with 5 mM NAC to increase intracellular thiol levels. […] This implies that ROS are involved in cell death.

The structures appear in SMILES notation.

Consider `CN(C)c1ccc(N=Nc2ccccn2)cc1.Cc1ccc(C(C)C)cc1.F[P-](F)(F)(F)(F)F.[I-].[Ru+2]` [Compound 8, [Ru(p-cymene)(Azpy-NMe2)I]PF6], for which the half-inhibitory concentration (IC50) with A2780 cancer cell line worked out at 5 µM; in the data set on A549 cancer cell line [1] it was 3 µM. For the same compound, the “change of complex in solution” value is recorded as “No change occurred” in data set [2] (100 μM, 99.5% D2O, 0.5% DMSO, 115 mM NaCl, pH=7.5, 37° C., over 24 hours) and “No change occurred” in data set [2] (saturated solution (filtered), 90% H2O/10% D2O, pH=7.2, 25° C. over 24 hours). In data set [3], the hydrolysis result is “no hydrolysis had occurred”. For the same compound, in data set [4], the reduction by ascorbate entry was “a one electron reduction was occurring”. In the data set on A549 cancer cells, the “change in DCF fluorescence over time (ROS generation)” value is “increase in the DCF fluorescence”. In addition, in the data set on A549 cancer cell line [5], the “cell survival of cells pre-treated with NAC versus untreated cells” value is given as “greater cell survival”.
